From PMC9775191, “A Subset Screen of the Compounds Australia Scaffold Library Identifies 7-Acylaminodibenzoxazepinones as Potent and Selective Hits for Anti-Giardia Drug Discovery” (Biomedicines, 2022)

Test system: G. duodenalis BRIS/91/HEPU/1279
Test: Primary Giardia screen at 10 µM (live-cell imaging, automated counting)
Format: cell-based, Giardia duodenalis
Details: for % Inhibition n=1 48h / % Inhibition n=1 24h: first singlicate assay; for % Inhibition n=2 24h / % Inhibition n=2 48h: re-assessment
Summary of the method: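 Percent growth versus 0.2% DMSO vehicle, background-corrected with media-only wells, is reported at 24 and 48 h from automated live-cell counts. Testing used 10 μM final in a 3% O2 atmosphere, with plate quality checked by Z' factor.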

Row | Compound | % Inhibition n=1 48h [%] | further results
1 | Cc1cc(C2CCCN2Cc2sccc2C)on1 (centres unmarked) [SN00793909] | 2.5 | –
2 | Cc1cc2c(cc1S(=O)(=O)NC(C)C)N(C(=O)C1CC1)CC2 [SN00798844] | 15.5 | –
3 | Cc1ccc(NC(=O)c2cc3c(=O)n(CC(C)C)ccc3n2C)cc1 [SN00797828] | 17.5 | –
4 | CN(C[C@@]12CCC[C@H]1N(C)C(=O)CC2)C(=O)c1ccc2c(c1)OCO2 (relative stereo) [SN00801319] | 28.7 | –
5 | Cn1ncc2c1CCCC2NC(=O)N1CCCCC(N2CCCC2)C1 (centres unmarked) [SN00781466] | 13.9 | –
6 | Cc1cnn(CC(C)NCc2nc(-c3ccccn3)no2)c1 (centres unmarked) [SN00782812] | 19.9 | –
7 | CCC(=O)N1CCC2(CC1)N=C(c1cccc(OC)c1)C(=O)N2 [SN00792731] | 18.9 | –
8 | COc1cc(NC(=O)N2CCN(c3cc(N(C)C)nc(C)n3)CC2)cc(OC)c1 [SN00786504] | 55.1 | Average % Inhibition 24h: 4.9%; % Inhibition n=1 24h: 9.8%; % Inhibition n=2 24h: 0.0%; Average % Inhibition 48h: 27.5%; % Inhibition n=2 48h: 0.0%
9 | Cc1cc(C)cc(C(=O)NCc2ccc3c(c2)nnn3C)c1 [SN00798663] | 0.0 | –
10 | Cc1ncc2c(n1)CN(C(C)c1nnc(-c3ccccc3)o1)CC2 (centres unmarked) [SN00807918] | 13.7 | –
11 | COc1ccc(CCNC(=O)c2cc(-c3cccs3)on2)cc1OC [SN00784489] | 33.2 | –
12 | O=S(=O)(c1cccs1)N1CCc2[nH]cnc2C1 [SN00798784] | 0.0 | –
13 | CCc1nn(CC)c(=O)c2cc(S(=O)(=O)N3CCOCC3)cn12 [SN00800228] | 11.8 | –
14 | CN(C)C(=O)N1CCN(Cc2nc3c(cnn3C)c(=O)[nH]2)CC1 [SN00807792] | 0.0 | –
15 | CCCCN1CCN(C(=O)c2cc3c(=O)n(CC(C)C)c4ccccc4n3n2)CC1 [SN00802291] | 12.0 | –
16 | Cc1ccc(-c2nc(C(=O)N3CCN(c4ccc(Cl)cc4)CC3)cs2)s1 [SN00796526] | 7.8 | –

Row | Compound | % Inhibition n=1 48h [%] | further results
17 | CCCS(=O)(=O)N1CCc2c(c(-c3nnc(-c4ccc(F)cc4)o3)nn2C)C1 [SN00796867] | 0.0 | –
18 | O=C(NCc1cccc(F)c1)C1CCCN(c2nc3ccccc3n3cccc23)C1 (centres unmarked) [SN00787408] | 0.0 | –
19 | CCOC(=O)N1CCN(c2nc(-c3cccs3)cc(C(F)(F)F)n2)CC1 [SN00784268] | 21.6 | –
20 | COc1ccc(-c2nc(CN3C(=O)C(=O)N(C(C)C)C3=O)cs2)cc1 [SN00769384] | 0.0 | –
21 | Cc1cccc(NC(=O)CN2CC(c3ccccc3)CC2=O)c1 (centres unmarked) [SN00784702] | 10.4 | –
22 | CSCCC1COC(c2cccn2C)=N1 (centres unmarked) [SN00784837] | 0.0 | –
23 | CCOc1cc2c(cc1OCC)-n1cccc1C(c1cccc([N+](=O)[O-])c1)NC2 (centres unmarked) [SN00783996] | 10.3 | –
24 | CSc1ccc(NC(=O)N2C[C@@H]3C[C@H]2C[C@@H]3NC(=O)c2cccs2)cc1 (relative stereo) [SN00800991] | 17.8 | –
25 | CCN(CC)C(=O)C1CSCN1C(=O)c1cc(C)nc2c1nc1n2CCCCC1 (centres unmarked) [SN00779876] | 62.1 | Average % Inhibition 24h: 1.0%; % Inhibition n=1 24h: 1.9%; % Inhibition n=2 24h: 0.0%; Average % Inhibition 48h: 31.1%; % Inhibition n=2 48h: 0.0%
26 | Cc1ccc(C)c(S(=O)(=O)Nc2ccc3nnc(-c4ccccc4)n3n2)c1 [SN00795461] | 0.0 | –
27 | Cc1ncc2c(n1)CN(C(C)c1nc(-c3cccs3)no1)CC2 (centres unmarked) [SN00807951] | 13.5 | –
28 | CC(C)OCCCNC(=O)Cn1c(=O)c(=O)n(Cc2ccncc2)c2ncccc21 [SN00793629] | 13.1 | –
29 | CCCNS(=O)(=O)c1cc(C(=O)N2CCCC2)cs1 [SN00789651] | 0.0 | –
30 | Cc1ccc(C(=O)N2CCCC2c2nc(-c3cccc(C)c3)no2)cc1 (centres unmarked) [SN00797416] | 0.0 | –
31 | Cc1nc(-c2cc(S(=O)(=O)N3CCCCCC3)c(C)s2)sc1C [SN00797236] | 11.8 | –
